Data reported in publication PMC8086230 (Acta Pharmacologica Sinica, 2021).
Read-outs that look alike come from different tables or passages of the source. Values belong to the molecule of their own block, whether it stands above or below them.

Assays:
mock HEK-293 cells = assay: Passive diffusion in mock HEK-293 cells; format: in vitro ADME, human
[1] = BCS classification stated in the discussion
[2] = not given; remark: listed apart in the source
human renal 11β-HSD2 = biological target: T1, human renal 11β-HSD2 (Homo sapiens, UniProt P80365); format: biochemical; settings: read-out: Km for human 11β-HSD2
T1 sequence (P80365 1-405): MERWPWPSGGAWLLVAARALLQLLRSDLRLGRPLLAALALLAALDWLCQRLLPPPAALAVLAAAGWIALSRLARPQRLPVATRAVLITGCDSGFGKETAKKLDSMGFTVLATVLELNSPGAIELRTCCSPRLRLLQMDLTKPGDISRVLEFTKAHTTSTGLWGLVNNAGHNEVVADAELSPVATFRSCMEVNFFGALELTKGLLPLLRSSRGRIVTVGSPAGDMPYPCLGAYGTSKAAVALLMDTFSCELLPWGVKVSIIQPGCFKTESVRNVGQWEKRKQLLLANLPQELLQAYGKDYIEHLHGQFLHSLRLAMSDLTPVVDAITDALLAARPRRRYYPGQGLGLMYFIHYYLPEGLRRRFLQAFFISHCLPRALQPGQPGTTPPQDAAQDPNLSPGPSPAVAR

[3] = after orally dosing LianhuaQingwen, 12 capsules/person

Molecule: CC1(C)[C@@H](O[C@@H]2O[C@H](C(=O)O)[C@@H](O)[C@H](O)[C@H]2O[C@@H]2O[C@H](C(=O)O)[C@@H](O)[C@H](O)[C@H]2O)CC[C@]2(C)[C@H]3C(=O)C=C4[C@@H]5C[C@](C)(C(=O)O)CC[C@]5(C)CC[C@@]4(C)[C@]3(C)CC[C@@H]12 [Compound 3, Licorice saponin H2]
Presence in rat samples ([2]; rat, in vivo, po): Plasma, bile, urine, feces

Molecule: O=C(CCc1ccc(O)cc1)c1ccc(O)cc1O [Compound M27R, Davidigenin]
Presence in human samples (in vivo, po): Urine

Molecule: 22α-hydroxyglycyrrhetic acid-3-O-sulfate
Detection in human plasma and urine samples (in vivo, po): not detected
Detection in rat plasma or urine samples ([2]; rat, in vivo, po): not detected

Molecule: O=C(/C=C/c1ccc(O[C@@H]2O[C@H](CO)[C@@H](O)[C@H](O)[C@H]2O)cc1)c1ccc(O)cc1O [Compound 24, Isoliquiritin]
Presence in human samples [3]: Plasma, urine
Presence in rat samples ([2]; after orally dosing LianhuaQingwen, 3.78 g/kg): Plasma, bile, urine, feces

Molecule: C[C@]12CCC(=O)C=C1CC[C@@H]1[C@@H]2[C@@H](O)C[C@@]2(C)[C@H]1CC[C@]2(O)C(=O)CO [cortisol]
Km (human renal 11β-HSD2): 45 nM

Molecule: O=C1C[C@@H](c2ccc(O[C@@H]3O[C@H](CO)[C@@H](O)[C@H](O)[C@H]3O)cc2)Oc2cc(O)ccc21 [Compound 21, Liquiritin]
transport rate, membrane permeation in mock cells (mock HEK-293 cells; human, 10 min, 50 µmol/L): < 5 pmol·min^−1·mg^−1 protein
BCS Class [1]: BCS Class III
Presence in human samples (in vivo, po): Plasma, urine
Presence in rat samples ([2]; rat, in vivo, po): Plasma, bile, urine, feces

Now from value to molecule:

transport rate, membrane permeation in mock cells (mock HEK-293 cells): < 5 pmol·min^−1·mg^−1 protein
BCS Class [1]: BCS Class III
Presence in human samples (in vivo, po): Plasma, urine, feces
Presence in rat samples ([2]; rat, in vivo, po): Plasma, bile, urine, feces
Molecule: CC1(C)[C@@H](O[C@H]2O[C@H](C(=O)O)[C@@H](O)[C@H](O)[C@H]2O[C@@H]2O[C@H](C(=O)O)[C@@H](O)[C@H](O)[C@H]2O)CC[C@]2(C)[C@H]3C(=O)C=C4[C@@H]5C[C@@](C)(C(=O)O)CC[C@]5(C)CC[C@@]4(C)[C@]3(C)CC[C@@H]12 [Compound 1, Glycyrrhizin]

Presence in human samples [3]: Plasma, urine, feces
Molecule: O=C(/C=C/c1ccc(O)cc1)c1ccc(O)cc1O [Compound 26, Isoliquiritigenin]

Detection in human plasma and urine samples (in vivo, po): not detected
Detection in rat plasma or urine samples ([2]; rat, in vivo, po): not detected
Molecule: CC1(C(=O)OC2OC(C(=O)O)C(O)C(O)C2O)CC(O)C2(C)CCC3(C)C(=CC(=O)C4C5(C)CCC(OS(=O)(=O)O)C(C)(C)C5CCC43C)C2C1 (stereo not drawn) [22α-hydroxyglycyrrhetic acid-3-O-sulfate-30-O-glucuronide]
